According to patent US20220040123A1, “ANTI-HELICOBACTER FOOD COMPOSITION COMPRISING BETA-CARYOPHYLLENE” (priority 2018, published 2022):

Key:
H. pylori = test: Minimum growth inhibitory concentration test (absorbance at 650 nm after 72 hours); format: cell-based, Helicobacter pylori (ATCC 49503); conditions: Mueller Hinton broth with 10% bovine serum, absorbance 650 nm
Method: For H. pylori culture, an H. pylori (ATCC 49503) strain was inoculated on a Brucella agar medium containing 10% bovine serum and antibiotics (vancomycin, esfsuldin, trimethoprim, and amphotericin B), and cultured in an anaerobic incubator which maintains 10% CO2, 5% O2, 85% N2, and 97% or more humidity, at 37° C. for 72 hours. For a minimum growth inhibitory concentration test, each of 7.81, 15.63, 31.25, 62.5, 125, 250 and 500 μg and 1, 2 and 4 mg of beta-caryophyllene was added to a medium obtained by adding 10% bovine serum to Mueller Hinton broth, and then cultured in a CO2 incubator at a relative humidity of 100% for 72 hours. Each of the bacterial solutions cultured for 72 hours was measured for absorbance at 650 nm using a spectrophotometer to determine the minimum inhibitory concentration (MIC) of beta-caryophyllene, and the results are graphically shown in FIG. 2.

urease A and urease B = test: Expression of urease protein in H. pylori; format: cell-based, Helicobacter pylori; conditions: 125, 250 and 500 μg/ml, all treatment concentrations
Method: In order to evaluate the effect of beta-caryophyllene treatment on the inhibition of H. pylori urease, H. pylori was treated with beta-caryophyllene at concentrations of 125, 250 and 500 μg/ml, and changes in the expression of urease protein were analyzed, and the results are shown in FIG. 7.

[1] = system: sabA, hopZ, hpaA, alpA, alpB and babA genes; test: RT-PCR of genes involved in the adhesion of H. pylori; format: cell-based, Helicobacter pylori; conditions: 31.25-500 μg/ml
Method: In order to evaluate the effect of beta-caryophyllene against the adhesion function of H. pylori, changes in the expression of the genes sabA, hopZ, hpaA, alpA, alpB and babA involved in the adhesion of H. pylori were analyzed, and the results are shown in FIG. 8. Specifically, H. pylori was treated with beta-caryophyllene at concentrations of 31.25, 62.5, 125, 250 and 500 μg/ml, and the expression of the genes was analyzed by RT-PCR.

[2] = system: dnaA, dnaN, holB and polA genes; test: Expression of DNA synthesis-related genes of H. pylori; format: cell-based, Helicobacter pylori; conditions: 31.25-500 μg/ml
Method: DNA replication is essential for the proliferation of Helicobacter pylori, and RNA synthesis (transcription process) is a process essential for protein synthesis in organisms. Thus, unless normal RNA synthesis occurs, normal life activity cannot be maintained. Accordingly, in order to evaluate the inhibitory effect of beta-caryophyllene against the proliferation of H. pylori, H. pylori was treated with beta-caryophyllene at concentrations of 31.25, 62.5, 125, 250 and 500 μg/ml, and changes in the expression of the DNA synthesis-related genes dnaA, dnaN, holB and polA were analyzed, and the results are shown in FIG. 10.

[3] = system: virB2, virB4, virB5, virB6, virB7, virB8, virB9, virB10 and virD4 genes; test: RT-PCR of type IV secretion system (T4SS) genes; format: cell-based, Helicobacter pylori; conditions: 31.25-500 μg/ml
Method: In order to evaluate the inhibitory effect of beta-caryophyllene against the CagA toxin injection ability of Helicobacter pylori, expression of virB2, virB4, virB5, virB6, virB7, virB8, virB9, virB10 and virD4 genes associated with the type IV secretion system (T4SS) structure required to inject the CagA toxin into a host cell was analyzed, and the results are shown in FIG. 11. Specifically, Helicobacter pylori was treated with beta-caryophyllene at concentrations of 31.25, 62.5, 125, 250 and 500 μg/ml, and expression of the genes was analyzed by RT-PCR.

[4] = system: Helicobacter pylori 16S rRNA; test: qPCR test for gastric mucosal Helicobacter pylori (16S rRNA); format: in vivo, C57BL/6 mouse; conditions: for Gene expression level (Ct): 28 days, 16S rRNA vs 18SrRNA, control G3 13.80
Method: In order to compare the Helicobacter pylori eradiation effect between beta-caryophyllene and the antibiotics that are used for treatment of Helicobacter pylori infection, an animal test was performed using the test groups and doses shown in Table 1 below.
Each test substance was suspended in an excipient according to the dose and administered to each mouse once a day at the same time every day for a total of 28 days in a dose of 5 ml per kg mouse (C57BL/6 mouse) by oral gavage method.
After completion of the test, RNA was collected from the aseptically collected gastric mucosal tissue, and then synthesized into DNA to perform a PCR test. The marker gene used in this experiment was 16S rRNA, which is specifically found only in H. pylori and is not found in humans or mice. 18SrRNA was used as a loading control gene of the used DNA sample. The Ct value for each gene was obtained by reacting the fluorescent intercalator SYBR Green with the corresponding primer and DNA, and then calculated by relative quantification, and the results are shown in Table 4 below.

[5] = system: Helicobacter pylori-infected people; test: Human test, changes in digestive system symptoms; format: in vivo; conditions: 8 weeks
Method: In order to verify the anti-Helicobacter pylori effect of beta-caryophyllene, beta-caryophyllene was administered to 16 semi-healthy people (Helicobacter pylori-infected people) complaining of gastrointestinal disorders, at a dose of 126 mg/day once a day for 8 weeks before meals, and changes in digestive system symptoms (nausea, epigastric pain, heartburn, acid regurgitation, and indigestion) were evaluated, and the results are shown in Table 5.

[6] = 126 mg/day, after vs before intake

C=C1CC/C=C(\C)CC[C@@H]2[C@@H]1CC2(C)C [beta-caryophyllene]
minimum inhibitory concentration (MIC) against H. pylori (H. pylori): 1 mg
expression of urease A (Urease α) (urease A and urease B): significantly decreased
expression of urease B (Urease β) (urease A and urease B): significantly decreased
expression of alpA gene [1]: decreased
expression of alpB gene [1]: decreased
expression of babA gene [1]: decreased
expression of dnaA gene [2]: increased
expression of dnaN gene [2]: significantly decreased
expression of holB gene [2]: significantly decreased
expression of polA gene [2]: increased
expression of virB2 gene [3]: significantly decreased
expression of virB4 gene [3]: significantly decreased
expression of virB8 gene [3]: significantly decreased
Gene expression level (Ct) ([4]; G6: 100 mg/kg/day): 11.99 Ct
decrease of Ct value compared to G3 ([4]; G6: 100 mg/kg/day, not statistically significant): 13.1%
Gene expression level (Ct) ([4]; G7: 200 mg/kg/day): 9.40 Ct
decrease of Ct value compared to G3 ([4]; G7: 200 mg/kg/day, not statistically significant): 31.9%
Gene expression level (Ct) ([4]; G8: 500 mg/kg/day): 5.71 Ct
decrease of Ct value compared to G3 ([4]; G8: 500 mg/kg/day, statistically significant): 58.6%
Nausea, After intake ([5]; 126 mg/day once a day, 16 people, before intake 0.19): 0.06
Acid regurgitation, After intake ([5]; 126 mg/day once a day, 16 people, before intake 0.25): 0.06
Indigestion, After intake ([5]; 126 mg/day once a day, 16 people, before intake 0.56): 0.13
Heartburn, After intake ([5]; 126 mg/day once a day, 16 people, before intake 0.88): 0.38
Epigastric pain, After intake ([5]; 126 mg/day once a day, 16 people, before intake 1.31): 0.44
Acid regurgitation, Improvement rate (%) [5, 6]: 76%
Epigastric pain, Improvement rate (%) [5, 6]: 66.4%
Heartburn, Improvement rate (%) [5, 6]: 56.8%
Indigestion, Improvement rate (%) [5, 6]: 76.8%
Nausea, Improvement rate (%) [5, 6]: 68.4%
improvement of Helicobacter pylori-induced gastrointestinal disorders ([5]; 126 mg/day, all five symptoms of Table 5): ≥ 56%
